Counter-ions that a name gives are not always drawn. Peptide text beside a SMILES is read from it.

Tested on in the first series: not listed separately
In words: Coagulation parameters (PT, APTT, TT) after oral administration. The series is classed as in vivo, rat. Conditions: SD rats, 65 μmol/kg bw, n = 6. An excerpt:
The prothrombin time (PT), activated partial thromboplastin time (APTT), and thrombin time (TT) assay methods refer to our previous study. PT, APTT, and TT detection kits (Siemens, Shanghai, China) were employed for the determination of coagulation parameters according to the manufacturer’s instructions.
Take `COC(=O)[C@H](c1ccccc1Cl)N1CCc2sccc2C1` [clopidogrel, Clopidogrel hydrogen sulfate, reference compound]: the “PT (prothrombin time)” value was “altered the TT and PT significantly”; the “TT (thrombin time)” value is “altered the TT and PT significantly”.

Staying with this series, now noted: SD rats, 200 μmol/kg b.w., n = 6.
Take `N[C@@H](CCC(=O)O)C(=O)N1C[C@H](O)C[C@H]1C(=O)NCC(=O)N[C@@H](CCC(=O)O)C(=O)O` [EOGE, Glu-Hyp-Gly-Glu] (HELM PEPTIDE1{E.[Hyp].G.E}$$$$V2.0): the “coagulation parameters, including PT, TT, and APTT” value was “no significant effect”.

Staying with this series, now noted: SD rats, 300 μmol/kg b.w., n = 6.
For `N[C@@H](CCC(=O)O)C(=O)N1C[C@H](O)C[C@H]1C(=O)NCC(=O)N[C@@H](CCC(=O)O)C(=O)O` [EOGE, Glu-Hyp-Gly-Glu] (HELM PEPTIDE1{E.[Hyp].G.E}$$$$V2.0), the “coagulation parameters, including PT, TT, and APTT” value was “no significant effect”.

In a further series the test system is thrombus formation.
Experiment: not given
Conditions: oral administration; cited from earlier work. An excerpt: Collagen is a natural source of bioactive peptides and widely distributed in skin and bone tissue, which has a unique triple-helix structure with a repeated amino acid sequence of (Gly-X-Y)n, in which X and Y are typically Pro and Hyp. Hyp-Gly-containing peptides are abundant in collagen, and a large quantity of these peptides could be released after hydrolysis.
On to “OGEFG [peptide identified from Salmo Salar skin in a previous study]”, for which the “thrombus formation in vivo” value is on record as “attenuates thrombus formation without bleeding risks”.

The next series has as its system ADP-induced platelet aggregation.
Experiment: not given
The series is classed as cell-based, rat.
Details: not given
The method, then: The platelet was isolated from rat aorta blood and mixed with sodium citrate (1:9, v/v) as previously described with some modifications. Briefly, anticoagulated blood was centrifuged (50× g, 10 min) to obtain platelet-rich plasma (PRP). The residue was centrifuged at 750× g for 10 min to collect the platelet-poor plasma (PPP), and PRP was diluted to 2–3 × 10^8 with PPP.
Inhibition of platelet aggregation induced by ADP was measured with a four-channel aggregometer as previously described. Aliquots of 270 μL of PRP were incubated with 30 μL of PPP or peptides with different concentrations at 37 °C for 5 min. After incubation, platelet aggregation was induced by adding 30 μL of ADP (0.1 mM). The platelet aggregation at 5 min was recorded, and the inhibition rate was calculated as follows. Inhibition of platelet aggregation (%) = [1 − platelet aggregation (sample)/platelet aggregation (control)] × 100
The IC50 value of platelet aggregation was calculated by Graphpad Prism 6.0.
As to `N[C@@H](CC(=O)O)C(=O)N1C[C@H](O)C[C@H]1C(=O)NCC(=O)N[C@@H](CCC(=O)O)C(=O)O` [DOGE] (HELM PEPTIDE1{D.[Hyp].G.E}$$$$V2.0), the IC50 worked out at 661 µM.

Turning to `N[C@@H](CCC(=O)O)C(=O)N1C[C@H](O)C[C@H]1C(=O)NCC(=O)N[C@@H](CCC(=O)O)C(=O)O` [EOGE, Glu-Hyp-Gly-Glu] (HELM PEPTIDE1{E.[Hyp].G.E}$$$$V2.0), inhibition was half-maximal at 390 µM (IC50).

Regarding `N[C@@H](CCC(=O)O)C(=O)N1C[C@H](O)C[C@H]1C(=O)NCC(=O)O` [EOG] (HELM PEPTIDE1{E.[Hyp].G}$$$$V2.0; N-terminus and C-terminus assumed), the IC50 was determined as 395 µM.

For `NCC(=O)N[C@@H](CCC(=O)O)C(=O)N1C[C@H](O)C[C@H]1C(=O)NCC(=O)O` [GEOG] (HELM PEPTIDE1{G.E.[Hyp].G}$$$$V2.0), it took 878 µM to reach half-maximal inhibition (IC50).

In turn, `NCC(=O)N1C[C@H](O)C[C@H]1C(=O)N1C[C@H](O)C[C@H]1C(=O)NCC(=O)N1CCC[C@H]1C(=O)N[C@@H](CCC(N)=O)C(=O)O` [GOOGPQ] (HELM PEPTIDE1{G.[Hyp].[Hyp].G.P.Q}$$$$V2.0; N-terminus and C-terminus assumed) displayed an IC50 of 2080 µM.

Compound `CSCC[C@H](NC(=O)[C@@H]1CCCN1C(=O)CNC(=O)[C@@H]1CCCN1C(=O)[C@@H]1C[C@@H](O)CN1C(=O)CN)C(=O)O` [GOPGPM] (HELM PEPTIDE1{G.[Hyp].P.G.P.M}$$$$V2.0; N-terminus and C-terminus assumed) came in with a half-inhibitory concentration (IC50) of 5340 µM.

Take `O=C(O)C[C@H](NC(=O)CNC(=O)[C@@H]1C[C@@H](O)CN1)C(=O)O` [OGD] (HELM PEPTIDE1{[Hyp].G.D}$$$$V2.0; N-terminus and C-terminus assumed): half-maximal inhibition (IC50) was put at 435 µM.

In the case of `O=C(O)CC[C@H](NC(=O)CNC(=O)[C@@H]1C[C@@H](O)CN1)C(=O)O` [OGE] (HELM PEPTIDE1{[Hyp].G.E}$$$$V2.0; N-terminus and C-terminus assumed), inhibition was half-maximal at 620 µM (IC50).

With `CSCC[C@H](NC(=O)[C@@H]1C[C@@H](O)CN1C(=O)CNC(=O)[C@@H]1C[C@@H](O)CN1)C(=O)NCC(=O)O` [OGOMG] (HELM PEPTIDE1{[Hyp].G.[Hyp].M.G}$$$$V2.0; N-terminus and C-terminus assumed), half-maximal inhibition (IC50) required 1490 µM.

In turn, `O=C(NCC(=O)N1CCC[C@H]1C(=O)O)[C@@H]1C[C@@H](O)CN1` [OGP] (HELM PEPTIDE1{[Hyp].G.P}$$$$V2.0; N-terminus and C-terminus assumed) had an IC50 of 506 µM.

The compound `NC(=O)CC[C@H](NC(=O)CNC(=O)[C@@H]1C[C@@H](O)CN1)C(=O)O` [OGQ] (HELM PEPTIDE1{[Hyp].G.Q}$$$$V2.0; N-terminus and C-terminus assumed) came in with an IC50 of 760 µM.

On to `C[C@H](NC(=O)[C@H](CO)NC(=O)CNC(=O)[C@@H]1C[C@@H](O)CN1)C(=O)O` [OGSA] (HELM PEPTIDE1{[Hyp].G.S.A}$$$$V2.0), for which the IC50 was 630 µM.

`O=C(O)CC[C@H](NC(=O)[C@H](CO)NC(=O)CNC(=O)[C@@H]1C[C@@H](O)CN1)C(=O)O` [OGSE] (HELM PEPTIDE1{[Hyp].G.S.E}$$$$V2.0) registered an IC50 of 558 µM.

Take `O=C(O)CNC(=O)[C@@H]1C[C@@H](O)CN1` [OG] (HELM PEPTIDE1{[Hyp].G}$$$$V2.0): 1420 µM corresponded to half-maximal inhibition (IC50).

As to `O=C(O)CC[C@H](NC(=O)CNC(=O)[C@@H]1C[C@@H](O)CN1C(=O)[C@H](CCC(=O)O)NC(=O)CNC(=O)[C@@H]1CCCN1)C(=O)O` [PGEOGE] (HELM PEPTIDE1{P.G.E.[Hyp].G.E}$$$$V2.0; N-terminus and C-terminus assumed), the IC50 amounted to 317 µM.

For `O=C(O)CC[C@H](NC(=O)CNC(=O)[C@@H]1CCCN1)C(=O)N1C[C@H](O)C[C@H]1C(=O)NCC(=O)O` [PGEOG] (HELM PEPTIDE1{P.G.E.[Hyp].G}$$$$V2.0; N-terminus and C-terminus assumed), the IC50 came to 857 µM.

The compound `O=C(O)CC[C@H](NC(=O)CNC(=O)[C@@H]1CCCN1)C(=O)O` [PGE] (H-Pro-Gly-Glu-OH; N-terminus and C-terminus assumed) returned a half-inhibitory concentration (IC50) of 927 µM.

Regarding `O=C(CNC(=O)[C@@H]1CCCN1)N[C@@H](Cc1c[nH]cn1)C(=O)N[C@@H](Cc1c[nH]cn1)C(=O)O` [PGHH], the half-inhibitory concentration (IC50) came out at 1400 µM.

Consider `NCCCC[C@H](NC(=O)CNC(=O)[C@@H]1CCCN1)C(=O)N1CCC[C@H]1C(=O)O` [PGKP] (H-PGKP-OH), for which the IC50 turned out to be 2570 µM.

The compound `NCCCC[C@H](NC(=O)[C@@H]1CCCN1C(=O)CNC(=O)[C@@H]1CCCN1)C(=O)O` [PGPK] (H-PGPK-OH) came in with a concentration for half-maximal inhibition (IC50) of 2790 µM.

In turn, `NC(=O)CC[C@H](NC(=O)[C@@H]1CCCN1C(=O)CNC(=O)[C@@H]1CCCN1)C(=O)O` [PGPQ] (H-PGPQ-OH) yielded an IC50 of 3560 µM.

Compound `NC(=O)CC[C@H](NC(=O)CNC(=O)[C@@H]1CCCN1)C(=O)N1CCC[C@H]1C(=O)O` [PGQP] (H-PGQP-OH) yielded an IC50 of 2410 µM.

Regarding `O=C(O)CNC(=O)[C@@H]1CCCN1` [PG] (H-Pro-Gly-OH; N-terminus and C-terminus assumed), the 50% inhibitory concentration (IC50) is 3640 µM.

With `CC(C)[C@H](N)C(=O)NCC(=O)N1CCC[C@H]1C(=O)N1C[C@H](O)C[C@H]1C(=O)NCC(=O)N1CCC[C@H]1C(=O)N[C@@H](C)C(=O)O` [VGPOGPA] (HELM PEPTIDE1{V.G.P.[Hyp].G.P.A}$$$$V2.0; N-terminus and C-terminus assumed), inhibition was half-maximal at 2450 µM (IC50).

Tested on in a further series: not listed separately
In words: Thymus index and spleen index. To be noted: SD rats, oral, 65 μmol/kg bw, n = 6. In kind it is in vivo, rat. The method, then:
After the rats were sacrificed, the thymuses and spleens were collected and weighed to obtain the thymus index (TI) and spleen index (SI). The TI and SI were calculated according to the following equation: TI/SI (mg/g) = (weight of thymus/spleen)/body weight.
On to `COC(=O)[C@H](c1ccccc1Cl)N1CCc2sccc2C1` [clopidogrel, Clopidogrel hydrogen sulfate, reference compound], for which the “thymus index (TI) and spleen index (SI) compared to vehicle group” value (shortened to “thymus index (TI) and spleen index (SI)”) is given as “no significant difference”.

The same series, now with this note: SD rats, oral, 200 μmol/kg b.w., n = 6.
In the case of `N[C@@H](CCC(=O)O)C(=O)N1C[C@H](O)C[C@H]1C(=O)NCC(=O)N[C@@H](CCC(=O)O)C(=O)O` [EOGE, Glu-Hyp-Gly-Glu] (HELM PEPTIDE1{E.[Hyp].G.E}$$$$V2.0), the “thymus index (TI) and spleen index (SI)” value was “no significant difference”.

Staying with this series, now noted: SD rats, oral, 300 μmol/kg b.w., n = 6.
For `N[C@@H](CCC(=O)O)C(=O)N1C[C@H](O)C[C@H]1C(=O)NCC(=O)N[C@@H](CCC(=O)O)C(=O)O` [EOGE, Glu-Hyp-Gly-Glu] (HELM PEPTIDE1{E.[Hyp].G.E}$$$$V2.0), the “thymus index (TI) and spleen index (SI)” value is recorded as “no significant difference”.

As a reminder, the IC50 is the concentration that inhibits the measured activity by half. Higher therefore signals weaker potency.

These data come from article PMC9956102, “Structural Insights on Hyp-Gly-Containing Peptides as Antiplatelet Compounds through Topomer CoMFA and CoMSIA Analysis” (Foods, 2023).
